Patent US11377476B2, “Ras inhibitory peptides and uses thereof” (President and Fellows of Harvard College, priority 2014, dated 2022)
≈ marks a conversion by molar mass, not a printed value. Blank lines part the entries; values can stand above or below the compound they belong to. No end group written: not given here.

Tests used:
KRas = KRas (Homo sapiens, UniProt P01116, G12V); assay: Yeast surface display binding to KRas (FACS)
Myc/Max heterodimer = Myc/Max heterodimer (Homo sapiens, UniProt P01106+P61244); assay: Yeast surface display binding to Myc/Max; conditions: FIG. 38C
From the text: (§1) Experimental for yeast display assays were similar to those used for FIG. 9. MY01 peptide of SEQ ID NO: 43 corresponds to the indicated high-binding population in FIG. 38C. Purification of the RalA protein was similar to the methods used for KRas constructs as discussed previously.
Purification of the Myc/Max proteins was done as follows. A bicistronic pET vector containing His6-yBBr-TEV-Myc (residues 353-434) and untagged Max (residues 22-102) was transformed into chemically competent BL21 cells. The cells were grown to OD600=0.7, induced with 0.25 mM IPTG for 5 hours at 30° C., then harvested and resuspended in lysis buffer (20 mM HEPES pH 7.5, 500 mM KCl, 5% glycerol) prior to snap-freezing in liquid nitrogen. For purification, the pellet was thawed, raised to 40 ml in the same buffer, and mixed with a Roche Complete EDTA-free protease inhibitor tablet. The cells were lysed with a tip sonicator (VirSonic, 6 cycles of 10 s on, 15 s off at 6.5 power level), then pelleted at 30,000×g for 30 minutes and filtered through a 0.45 uM Tuffryn membrane (Pall Corporation). The clarified lysate was added to 2 ml of HisPur Ni-NTA resin (Thermo Pierce) that had been equilibrated with the same buffer, and drained by gravity. The column was washed with 20 ml of buffer, then protein was eluted with buffer containing 150 mM imidazole and some protease inhibitor. […]

[1] = Circular dichroism spectra and thermal melting at 222 nm; type: physicochemical; conditions: for effect of mutation on peptide secondary structure by CD: pH 12, compared to 225-3; for Tm: CD at 222 nm
[2] = molecular target: T1, endogenous Ras / Raf RBD interaction (Homo sapiens, UniProt P01116, G12V); assay: GST-Raf RBD pulldown of Ras in Capan-1 cell lysate, competition by peptide; type: biochemical; conditions: lysate pre-incubated with 10 μM peptide
T1 construct: endogenous in cells; host or cells: Capan-1 lysate (Ras); the GST-Raf RBD was made in E. coli BL21 Rosetta I pLysS from pGEX-5X

[3] = molecular target: KRas (G12V) loaded with mant-GppNHp (Homo sapiens, UniProt P01116, G12V); assay: Mant nucleotide dissociation assay; type: biochemical; conditions: 1 μM Raf or peptide, 500 nM Ras, excess GppNHp
[4] = test system: endogenous Ras in Capan-1 cell lysate; assay: Peptide pulldown of Ras in Capan-1 cell lysate; type: binding, human; conditions: for pulldown of endogenous Ras by biotinylated peptide: 5 μM peptide, streptavidin beads, western blot
KRas (G12V).GppNHp = KRas (G12V).GppNHp (Homo sapiens, UniProt P01116, G12V); assay: Fluorescence polarization binding of FITC-labeled 225-3 and its alanine mutants to KRas; conditions: alanine mutants of 225-3
RalA = molecular target: T2, RalA (Homo sapiens, UniProt P11233); assay: Yeast surface display binding to RalA; conditions: FIG. 38A-B
T2 sequence (P11233 1-206): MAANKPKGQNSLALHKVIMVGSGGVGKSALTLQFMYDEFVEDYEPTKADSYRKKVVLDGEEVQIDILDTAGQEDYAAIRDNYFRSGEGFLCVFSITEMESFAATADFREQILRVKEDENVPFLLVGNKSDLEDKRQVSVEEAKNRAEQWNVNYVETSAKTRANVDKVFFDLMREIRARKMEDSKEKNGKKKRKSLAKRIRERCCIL
From the text: as §1

Ras = Ras (Homo sapiens, UniProt P01116, G12V); assay: Ras binding of disulfide-protected peptide on addition of glutathione; conditions: Cys protected with 2,2′-Dipyridyldisulfide; 5 mM reduced glutathione
From the text: This cysteine is uncaged in the presence of […] glutathione levels to form the disulfide-bonded species, which is a better Ras binder. […] The experimentals are the similar to those described for FIG. 19.

[5] = Solubility of peptides in buffer
[6] = test system: H358 lung adenocarcinoma cells; assay: Live-cell confocal microscopy with fluorescein-labeled peptides; type: cell-based, human; conditions: 5 uM, compared to SEQ ID NO: 10
Description: Human tumor cell lines (e.g., H358 or HPAF-II) were seeded into LabTek II culture chambers in DMEM media supplemented with 10% fetal calf serum and grown overnight at 37° C. under standard cell culture conditions. The following day, media was replaced with media containing 5 uM of fluorescein-labeled peptide and incubated for 4 hours at 37° C. The cells were washed, stained with NucBlue Hoechst 33342 and Dextran 10k Alexa647, then imaged on a confocal microscope. The fluorescent peptides were visualized with a 488 nm laser and is shown in green in FIGS. 34A-B.

[7] = not told
GppNHp-bound Rapla = GppNHp-bound Rapla (Homo sapiens, UniProt P62834); conditions: Rapla versus Ras

Compound: GCGGPRRPRYPGDDASIEDLHEYWARLWNYLYRVA [225-1 A30R]
selectivity KRas(GTP) vs KRas(GDP) (KRas; 500 nM each of Ras.GTP and Ras.GDP, two-colour FACS): more selective for KRas (GTP) than 225-1

Compound: GPRRPRCPGDDASIRDLLKYWWRLRLYLLAVA [SEQ ID NO: 43]
binding to Myc/Max (Myc/Max heterodimer): binds

Compound: GCGGPRRPRRPRYPGDDASIEDLHEYWARLWAYLYAVA [Peptide N26A]
effect of mutation on peptide secondary structure by CD [1]: unchanged compared to 225-3
effect on pulldown of Ras by GST-tagged Raf RBD [2]: did not disrupt this pulldown
effect on rate of mantGppNHp dissociation from KRas [3]: did not decrease the rate of dissociation
pulldown of endogenous Ras by biotinylated peptide [4]: not pulled down
reduction in measured binding affinity relative to 225-3 (KRas (G12V).GppNHp): at least 100 fold

Compound: I14A: single alanine point mutant I14A of the 225-3 peptide (GCGGPRRPRRPRYPGDDASAEDLHEYWARLWNYLYAVA) [Peptide I14A]
effect of mutation on peptide secondary structure by CD [1]: significant destabilizing effect

Compound: GPRRPRCPGDDASISDLLLYWLRLDRYLWAVA [SEQ ID NO: 44]
binding to RalA (RalA): binds

Compound: GCGGPRRPRYPGDDACEEDLHEYWARLWNYLYAVA [225-1 S13C/I14E]
binding of yeast-displayed peptide to KRas (KRas; 5 nM KRas, mutant pre-incubated with free 225-1): binds Ras with increased affinity

Compound: PRRPRCPGHAASIAALHAYWARLWNYLYRVR [Peptide 291-Q3]
change in Ras binding upon addition of reduced glutathione (Ras): increase in Ras binding

Compound: CC[C@H](C)[C@H](NC(=O)[C@H](CO)NC(=O)[C@H](C)NC(=O)[C@H](CC(=O)O)NC(=O)[C@H](CC(=O)O)NC(=O)CNC(=O)[C@@H]1CCCN1C(=O)[C@H](Cc1ccc(O)cc1)NC(=O)[C@H](CCCNC(=N)N)NC(=O)[C@@H]1CCCN1C(=O)[C@H](CCCNC(=N)N)NC(=O)[C@H](CCCNC(=N)N)NC(=O)[C@@H]1CCCN1C(=O)CNC(=O)CNC(=O)[C@H](CS)NC(=O)CN)C(=O)N[C@@H](CCC(=O)O)C(=O)N[C@@H](CC(=O)O)C(=O)N[C@@H](CC(C)C)C(=O)N[C@@H](Cc1c[nH]cn1)C(=O)N[C@@H](CCC(=O)O)C(=O)N[C@@H](Cc1ccc(O)cc1)C(=O)N[C@@H](Cc1c[nH]c2ccccc12)C(=O)N[C@@H](C)C(=O)N[C@@H](CCCNC(=N)N)C(=O)N[C@@H](CC(C)C)C(=O)N[C@@H](Cc1c[nH]c2ccccc12)C(=O)N[C@@H](CC(N)=O)C(=O)N[C@@H](Cc1ccc(O)cc1)C(=O)N[C@@H](CC(C)C)C(=O)N[C@@H](Cc1ccc(O)cc1)C(=O)N[C@@H](C)C(=O)N[C@H](C(=O)N[C@@H](C)C(=O)O)C(C)C [Peptide 225-1]
solubility [5]: 100 to 200 µM (≈ 407 to 814 µg/mL)

Compound: GCGGPRRPRRPRYPGDDASIEDLHEYAARLWNYLYAVA [Peptide W21A]
effect of mutation on peptide secondary structure by CD [1]: significant destabilizing effect

Compound: GCGGPRRPRYPGDAASIAALHAYWARLWNYLYRVA [SEQ ID NO: 28]
solubility / aggregates in microscopy [6]: increased solubility

Tm ([1]; pH 4.5): 57 °C
Tm ([1]; pH 12): 46.2 °C
cell permeability [7]: somewhat cell permeable
binding weaker than to Ras (GppNHp-bound Rapla): more than 100 fold
Compound: CC[C@H](C)[C@H](NC(=O)[C@H](CO)NC(=O)[C@H](C)NC(=O)[C@H](CC(=O)O)NC(=O)[C@H](CC(=O)O)NC(=O)CNC(=O)[C@@H]1CCCN1C(=O)[C@H](Cc1ccc(O)cc1)NC(=O)[C@H](CCCNC(=N)N)NC(=O)[C@@H]1CCCN1C(=O)[C@H](CCCNC(=N)N)NC(=O)[C@H](CCCNC(=N)N)NC(=O)[C@@H]1CCCN1C(=O)[C@H](CCCNC(=N)N)NC(=O)[C@H](CCCNC(=N)N)NC(=O)[C@@H]1CCCN1C(=O)CNC(=O)CNC(=O)[C@H](CS)NC(=O)CN)C(=O)N[C@@H](CCC(=O)O)C(=O)N[C@@H](CC(=O)O)C(=O)N[C@@H](CC(C)C)C(=O)N[C@@H](Cc1c[nH]cn1)C(=O)N[C@@H](CCC(=O)O)C(=O)N[C@@H](Cc1ccc(O)cc1)C(=O)N[C@@H](Cc1c[nH]c2ccccc12)C(=O)N[C@@H](C)C(=O)N[C@@H](CCCNC(=N)N)C(=O)N[C@@H](CC(C)C)C(=O)N[C@@H](Cc1c[nH]c2ccccc12)C(=O)N[C@@H](CC(N)=O)C(=O)N[C@@H](Cc1ccc(O)cc1)C(=O)N[C@@H](CC(C)C)C(=O)N[C@@H](Cc1ccc(O)cc1)C(=O)N[C@@H](C)C(=O)N[C@H](C(=O)N[C@@H](C)C(=O)O)C(C)C [Peptide 225-3]
pulldown of endogenous Ras by biotinylated peptide [4]: pulled down Ras
pulldown of endogenous Ras by biotinylated peptide after Raf RBD pre-incubation ([4]; lysate pre-incubated with Raf RBD (3 μM)): not when the lysate was pre-incubated with the Raf RBD

Compound: GCGGPRRPRRPRYPGDDASIEDLHEYWARLANYLYAVA [Peptide W25A]
effect of mutation on peptide secondary structure by CD [1]: significant destabilizing effect

Compound: GPRRPRCPGDDASIRDLVMYWYRLYFYLEAVA [SEQ ID NO: 45]
binding to RalA (RalA): binds both RalA and KRas
binding to KRas (KRas; yeast surface display, FIG. 38): binds both RalA and KRas
